# Molecular target: T1, ribose binding protein (RBP) (Caldanaerobacter subterraneus, UniProt Q8RD41)
# T1 construct: gene RbsB; RF125: RBP with human FKBP12 (V24A and C22A) inserted at position 125, without the NFM and CFM mutations
# Test: isothermal titration calorimetry
# T1 sequence (Q8RD41 24-313): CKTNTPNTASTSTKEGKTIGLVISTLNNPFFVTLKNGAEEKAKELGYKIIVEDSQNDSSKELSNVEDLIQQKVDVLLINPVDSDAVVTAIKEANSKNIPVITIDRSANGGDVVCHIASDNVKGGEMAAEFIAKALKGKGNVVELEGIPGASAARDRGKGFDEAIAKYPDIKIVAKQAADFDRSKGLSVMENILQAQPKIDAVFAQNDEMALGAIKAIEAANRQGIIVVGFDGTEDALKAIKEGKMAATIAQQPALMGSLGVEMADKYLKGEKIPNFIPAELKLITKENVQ
# T1 sequence (P62942 with tags, fused parts or gaps C23A/V25A partner): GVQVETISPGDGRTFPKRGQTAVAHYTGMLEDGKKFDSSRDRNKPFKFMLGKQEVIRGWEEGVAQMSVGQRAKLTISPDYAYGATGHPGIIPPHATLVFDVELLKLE
smiles,measurement,value
O=C[C@H](O)[C@H](O)[C@H](O)CO [ribose],Kd,12.8 nM

# Reference: PMC5347425, “Small Molecule-Induced Domain Swapping as a Mechanism for Controlling Protein Function and Assembly” (Scientific Reports, 2017)
